In BigSolDB 2.1:

CCCCCCCCCCCCCCCCCCCC(=O)OCCO
Conditions | solubility (mole fraction)
in 1,1,1-trichloroethane, 296.75 K | 0.0241
in 1,1,1-trichloroethane, 299.75 K | 0.0469
in 1,1,1-trichloroethane, 303.75 K | 0.0762
in 1,1,1-trichloroethane, 309.55 K | 0.142
in MIBK, 294.65 K | 0.0026
in MIBK, 298.05 K | 0.0049
in MIBK, 299.25 K | 0.008
in MIBK, 302.65 K | 0.0176
in MIBK, 307.55 K | 0.0486
in MIBK, 311.75 K | 0.173
in cyclohexane, 296.35 K | 0.003
in cyclohexane, 298.75 K | 0.0044
in cyclohexane, 301.55 K | 0.008
in cyclohexane, 303.25 K | 0.0189
in cyclohexane, 305.65 K | 0.0367
in cyclohexane, 307.25 K | 0.069
in cyclohexane, 310.55 K | 0.122
in ethanol, 311.25 K | 0.0006
in ethanol, 314.65 K | 0.0012
in ethanol, 319.15 K | 0.002
in ethanol, 322.15 K | 0.005
in ethanol, 324.15 K | 0.0139
in isopropanol, 302.85 K | 0.0002
in isopropanol, 304.05 K | 0.0005
in isopropanol, 306.35 K | 0.0008
in isopropanol, 309.85 K | 0.001
in isopropanol, 310.65 K | 0.0017
in isopropanol, 310.95 K | 0.0026
in isopropanol, 313.15 K | 0.0028
in isopropanol, 316.15 K | 0.0062
in isopropanol, 318.15 K | 0.0134
in isopropanol, 319.85 K | 0.082
in isopropanol, 319.95 K | 0.193
in n-butanol, 303.75 K | 0.0006
in n-butanol, 303.95 K | 0.001
in n-butanol, 306.55 K | 0.0018
in n-butanol, 306.75 K | 0.0019
in n-butanol, 307.95 K | 0.0027
in n-butanol, 308.85 K | 0.0039
in n-butanol, 310.85 K | 0.0059
in n-butanol, 313.75 K | 0.0122
in n-butanol, 315.75 K | 0.0201
in n-butanol, 317.35 K | 0.0783
in n-butanol, 317.45 K | 0.151
in n-butyl acetate, 294.75 K | 0.0036
in n-butyl acetate, 296.55 K | 0.0065
in n-butyl acetate, 297.45 K | 0.009
in n-butyl acetate, 299.85 K | 0.0127
in n-butyl acetate, 301.05 K | 0.0184
in n-butyl acetate, 303.45 K | 0.0288
in n-butyl acetate, 307.35 K | 0.0655
in n-butyl acetate, 312.35 K | 0.147
in n-butyl acetate, 312.85 K | 0.172
in n-butyl acetate, 313.35 K | 0.185
in trichloroethylene, 297 K | 0.0428
in trichloroethylene, 299.25 K | 0.0575
in trichloroethylene, 304.25 K | 0.104
in trichloroethylene, 307.7 K | 0.15
in trichloroethylene, 311.3 K | 0.216

CCCCCCCCCCCCCCCCCCCCCC(=O)OCCO
Conditions | solubility (mole fraction)
in 1,1,1-trichloroethane, 287.55 K | 0.0101
in 1,1,1-trichloroethane, 290.15 K | 0.0146
in 1,1,1-trichloroethane, 293.65 K | 0.0202
in 1,1,1-trichloroethane, 296.95 K | 0.0313
in 1,1,1-trichloroethane, 299.45 K | 0.043
in 1,1,1-trichloroethane, 302.35 K | 0.0571
in 1,1,1-trichloroethane, 304.35 K | 0.0718
in 1,1,1-trichloroethane, 305.75 K | 0.0958
in 1,1,1-trichloroethane, 308.95 K | 0.127
in 1,1,1-trichloroethane, 311.75 K | 0.161
in 1,1,1-trichloroethane, 318.15 K | 0.259
in cyclohexane, 295.95 K | 0.0024
in cyclohexane, 300.05 K | 0.0037
in cyclohexane, 304.75 K | 0.0102
in cyclohexane, 307.15 K | 0.0204
in cyclohexane, 308.95 K | 0.041
in cyclohexane, 311.05 K | 0.0766
in cyclohexane, 312.65 K | 0.108
in ethanol, 296.35 K | 0.0001
in ethanol, 302.05 K | 0.0002
in ethanol, 305.35 K | 0.0003
in ethanol, 311.65 K | 0.0007
in ethanol, 313.05 K | 0.0009
in ethanol, 322.45 K | 0.0131
in isobutanol, 295.75 K | 0.0001
in isobutanol, 300.35 K | 0.0004
in isobutanol, 304.45 K | 0.0018
in isobutanol, 304.55 K | 0.0016
in isobutanol, 308.45 K | 0.003
in isobutanol, 311.55 K | 0.0082
in isopropanol, 305.15 K | 0.0003
in isopropanol, 306.65 K | 0.0006
in isopropanol, 313.15 K | 0.0008
in isopropanol, 315.65 K | 0.0015
in isopropanol, 319.65 K | 0.0033
in isopropanol, 321.65 K | 0.0058
in isopropanol, 325.65 K | 0.0069
in isopropanol, 326.65 K | 0.0241
in n-butanol, 295.85 K | 0.0004
in n-butanol, 299.75 K | 0.0006
in n-butanol, 304.25 K | 0.001
in n-butanol, 307.25 K | 0.0018
in n-butanol, 309.25 K | 0.0036
in n-propanol, 296.55 K | 0.0002
in n-propanol, 299.15 K | 0.0003
in n-propanol, 302.85 K | 0.0007
in n-propanol, 303.15 K | 0.0008
in n-propanol, 306.05 K | 0.0016
in n-propanol, 308.85 K | 0.0033
in tetrachloroethylene, 297.25 K | 0.0002
in tetrachloroethylene, 298.45 K | 0.0003
in tetrachloroethylene, 301.95 K | 0.0005
in tetrachloroethylene, 303.25 K | 0.0008
in tetrachloroethylene, 309.75 K | 0.0028
in trichloroethylene, 296.25 K | 0.0089
in trichloroethylene, 301.35 K | 0.0177
in trichloroethylene, 306.45 K | 0.0406
in trichloroethylene, 310.85 K | 0.0804
in trichloroethylene, 311.25 K | 0.252
